Test results published in PubChem BioAssay (NCI).
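Briefly, cells in 96-well plates were exposed to five compound concentrations for 48 h, and endpoints were estimated by linear interpolation. GI50 = concentration required for 50% inhibition of growth. The concentration for full growth arrest is given as TGI.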

What was measured:
Assay in all cases: NCI-60 cell line screen, 48 h
786-0 renal = test system: 786-0 renal
A498 renal = test system: A498 renal
A549 NSCLC = test system: A549 NSCLC
ACHN renal = test system: ACHN renal
BT-549 breast = test system: BT-549 breast
CCRF-CEM leukemia = test system: CCRF-CEM leukemia
COLO 205 colon = test system: COLO 205 colon
DU-145 prostate = test system: DU-145 prostate
EKVX NSCLC = test system: EKVX NSCLC
HCC-2998 colon = test system: HCC-2998 colon
HCT-116 colon = test system: HCT-116 colon
HL-60(TB) leukemia = test system: HL-60(TB) leukemia
HOP-62 NSCLC = test system: HOP-62 NSCLC
HOP-92 NSCLC = test system: HOP-92 NSCLC
HS 578T breast = test system: HS 578T breast
HT29 colon = test system: HT29 colon
IGROV1 ovarian = test system: IGROV1 ovarian
K-562 leukemia = test system: K-562 leukemia
LOX IMVI melanoma = test system: LOX IMVI melanoma
M14 melanoma = test system: M14 melanoma
MALME-3M melanoma = test system: MALME-3M melanoma
MCF7 breast = test system: MCF7 breast
MDA-MB-231 breast = test system: MDA-MB-231 breast
MDA-MB-435 = test system: MDA-MB-435
MOLT-4 leukemia = test system: MOLT-4 leukemia
NCI-H226 lung = test system: NCI-H226 lung
NCI-H23 lung = test system: NCI-H23 lung
NCI-H460 lung = test system: NCI-H460 lung
NCI-H522 lung = test system: NCI-H522 lung
NCI/ADR-RES ovarian = test system: NCI/ADR-RES ovarian
OVCAR-3 ovarian = test system: OVCAR-3 ovarian
OVCAR-5 ovarian = test system: OVCAR-5 ovarian
OVCAR-8 ovarian = test system: OVCAR-8 ovarian
RPMI-8226 leukemia = test system: RPMI-8226 leukemia
RXF 393 renal = test system: RXF 393 renal
SF-268 CNS = test system: SF-268 CNS
SF-295 CNS = test system: SF-295 CNS
SF-539 CNS = test system: SF-539 CNS
SK-MEL-2 melanoma = test system: SK-MEL-2 melanoma
SK-MEL-28 melanoma = test system: SK-MEL-28 melanoma
SK-MEL-5 melanoma = test system: SK-MEL-5 melanoma
SK-OV-3 ovarian = test system: SK-OV-3 ovarian
SN12C renal = test system: SN12C renal
SNB-19 CNS = test system: SNB-19 CNS
SNB-75 CNS = test system: SNB-75 CNS
SW-620 colon = test system: SW-620 colon
T-47D breast = test system: T-47D breast
TK-10 renal = test system: TK-10 renal
U251 CNS = test system: U251 CNS
UACC-62 melanoma = test system: UACC-62 melanoma
UO-31 renal = test system: UO-31 renal

For `COC(=O)[C@]12CC[C@@H](C)[C@H](C)[C@@H]1C1=CC[C@@H]3[C@@]4(C)C(C=O)=C[C@@](C)(COS(C)(=O)=O)C4=CC[C@@]3(C)[C@]1(C)CC2`, the GI50 (786-0 renal) was 189 nM, the TGI (786-0 renal) was 415 nM and the GI50 (A498 renal) was 193 nM. The TGI (A498 renal) was 1130 nM, the GI50 (A549 NSCLC) was 468 nM and the TGI (A549 NSCLC) was 1920 nM. For the same compound, the GI50 (ACHN renal) was 171 nM, the TGI (ACHN renal) was 317 nM and the GI50 (BT-549 breast) was 211 nM. It also gave a TGI (BT-549 breast) of 630 nM, a GI50 (CCRF-CEM leukemia) of 324 nM and a TGI (CCRF-CEM leukemia) of 1470 nM. The GI50 (COLO 205 colon) was 223 nM, the TGI (COLO 205 colon) was 454 nM and the GI50 (DU-145 prostate) was 317 nM. The TGI (DU-145 prostate) was 1060 nM, the GI50 (EKVX NSCLC) was 315 nM and the TGI (EKVX NSCLC) was 1340 nM. For the same compound, the GI50 (HCC-2998 colon) was 204 nM, the TGI (HCC-2998 colon) was 466 nM and the GI50 (HCT-116 colon) was 160 nM. For the same compound, the TGI (HCT-116 colon) was 321 nM, the GI50 (HL-60(TB) leukemia) was 276 nM and the TGI (HL-60(TB) leukemia) was 835 nM. It also gave a GI50 (HOP-62 NSCLC) of 303 nM, a TGI (HOP-62 NSCLC) of 1170 nM and a GI50 (HOP-92 NSCLC) of 197 nM. For the same compound, the TGI (HOP-92 NSCLC) was 550 nM, the GI50 (HS 578T breast) was 234 nM and the TGI (HS 578T breast) was 711 nM. It also gave a GI50 (HT29 colon) of 144 nM, a TGI (HT29 colon) of 370 nM and a GI50 (IGROV1 ovarian) of 318 nM. The TGI (IGROV1 ovarian) was 1060 nM, the GI50 (K-562 leukemia) was 308 nM and the TGI (K-562 leukemia) was 1170 nM. For the same compound, the GI50 (LOX IMVI melanoma) was 169 nM, the TGI (LOX IMVI melanoma) was 316 nM and the GI50 (M14 melanoma) was 213 nM. For the same compound, the TGI (M14 melanoma) was 486 nM, the GI50 (MALME-3M melanoma) was 173 nM and the TGI (MALME-3M melanoma) was 340 nM. The GI50 (MCF7 breast) was 265 nM, the TGI (MCF7 breast) was 1370 nM and the GI50 (MDA-MB-231 breast) was 232 nM. For the same compound, the TGI (MDA-MB-231 breast) was 578 nM, the GI50 (MDA-MB-435) was 177 nM and the TGI (MDA-MB-435) was 364 nM. The GI50 (MOLT-4 leukemia) was 244 nM, the TGI (MOLT-4 leukemia) was 1050 nM and the GI50 (NCI-H226 lung) was 232 nM. It also gave a TGI (NCI-H226 lung) of 635 nM, a GI50 (NCI-H23 lung) of 303 nM and a TGI (NCI-H23 lung) of 1340 nM. It also gave a GI50 (NCI-H460 lung) of 226 nM, a TGI (NCI-H460 lung) of 534 nM and a GI50 (NCI-H522 lung) of 178 nM. The TGI (NCI-H522 lung) was 371 nM, the GI50 (NCI/ADR-RES ovarian) was 325 nM and the TGI (NCI/ADR-RES ovarian) was 1970 nM. For the same compound, the GI50 (OVCAR-3 ovarian) was 183 nM, the TGI (OVCAR-3 ovarian) was 359 nM and the GI50 (OVCAR-5 ovarian) was 215 nM. For the same compound, the TGI (OVCAR-5 ovarian) was 570 nM, the GI50 (OVCAR-8 ovarian) was 332 nM and the TGI (OVCAR-8 ovarian) was 1620 nM. The GI50 (RPMI-8226 leukemia) was 263 nM, the TGI (RPMI-8226 leukemia) was 1100 nM and the GI50 (RXF 393 renal) was 170 nM. For the same compound, the TGI (RXF 393 renal) was 358 nM, the GI50 (SF-268 CNS) was 248 nM and the TGI (SF-268 CNS) was 721 nM. The GI50 (SF-295 CNS) was 296 nM, the TGI (SF-295 CNS) was 1260 nM and the GI50 (SF-539 CNS) was 207 nM. The TGI (SF-539 CNS) was 451 nM, the GI50 (SK-MEL-2 melanoma) was 226 nM and the TGI (SK-MEL-2 melanoma) was 497 nM. For the same compound, the GI50 (SK-MEL-28 melanoma) was 198 nM, the TGI (SK-MEL-28 melanoma) was 415 nM and the GI50 (SK-MEL-5 melanoma) was 175 nM. The TGI (SK-MEL-5 melanoma) was 333 nM, the GI50 (SK-OV-3 ovarian) was 667 nM and the TGI (SK-OV-3 ovarian) was 2920 nM. The GI50 (SN12C renal) was 339 nM, the TGI (SN12C renal) was 1920 nM and the GI50 (SNB-19 CNS) was 480 nM. It also gave a TGI (SNB-19 CNS) of 1960 nM, a GI50 (SNB-75 CNS) of 161 nM and a TGI (SNB-75 CNS) of 610 nM. It also gave a GI50 (SW-620 colon) of 209 nM, a TGI (SW-620 colon) of 484 nM and a GI50 (T-47D breast) of 158 nM. For the same compound, the TGI (T-47D breast) was 470 nM, the GI50 (TK-10 renal) was 211 nM and the TGI (TK-10 renal) was 512 nM. It also gave a GI50 (U251 CNS) of 230 nM, a TGI (U251 CNS) of 606 nM and a GI50 (UACC-62 melanoma) of 200 nM. It also gave a TGI (UACC-62 melanoma) of 551 nM, a GI50 (UO-31 renal) of 158 nM and a TGI (UO-31 renal) of 321 nM.
